Measurements as given in patent EP3099166B1, “METHOD TO CONTROL ST[…] SEPTORIA TRITICI” (priority 2014, dated 2015).
Where two headings read alike, the source gives them in different places.

What was measured:
Septoria tritici [1] = experiment: Glasshouse trial on wheat, curative (K4) application (Example 2); type: in vivo; conditions: for % Efficacy: wheat, R12 isolates, G143A, 4 weeks after application
Method: (§1) The trials were conducted under glasshouse conditions. Wheat was planted and grown under standard conditions with adequate supply of water and nutrients. At BBCH 11, an application of the test compounds was made. Fungicides were applied curatively 4 days after inoculation (K4) with different rates. The Septoria isolates used for inoculation were classified "R12" according their cyp51 haplotype (less sensitive to triazoles due to V136A, 1381V, Y461S/H and S524T mutation in cyp51 gene) and resistant to strobilurins due to G143A mutation in cytochrome b gene.
(§2) Disease levels were assessed by evaluating the average percentage of diseased leaf area 4 weeks after application.
(§3) The disease levels were converted into efficacies. An efficacy of 0 means that the level of the treated plants corresponds to that of the untreated control plants; an efficacy of 100 means that the treated plants had no disease at all.

Septoria tritici [2] = experiment: Glasshouse trial on wheat, preventive (P1) or curative (K4) application (Example 1); type: in vivo; conditions: Zymoseptoria tritici
Method: as §1, with “applied preventively (1 day before inoculation, P1) or” for “applied”, “curatively (4” for “curatively 4”, “after inoculation, K4) and” for “after inoculation (K4)”, “V136A, I381V,” for “V136A, 1381V,”
as §2, §3

[3] = Zymoseptoria tritici, 672 h, read-out: % Efficacy

## CO/C=C(/C(=O)OC)c1ccccc1COc1cccc(C(F)(F)F)n1 [Picoxystrobin, picoxystrobin]
Septoria tritici [1]; 83 g a.i./ha, curative (K4, 4 days after inoculation)
  % Efficacy: 0%
Septoria tritici [1]; 250 g a.i./ha, curative (K4)
  % Efficacy: 7%

## CCCC1COC(Cn2cncn2)(c2ccc(Cl)cc2Cl)O1 (stereo not drawn) [Propiconazole, propiconazole]
Septoria tritici [2]; 672 h, read-out: % Efficacy, 33 g a.i./ha, curative (K4), R12 isolates, G143A, 4 weeks after application
  Percent disease control efficacy at 33 g/ha: 7%
Septoria tritici [2]; 672 h, read-out: % Efficacy, 33 g a.i./ha, preventative (P1), R12 isolates, G143A, 4 weeks after application
  Percent disease control efficacy at 33 g/ha: 10%
Septoria tritici [2]; 672 h, read-out: % Efficacy, 125 g a.i./ha, preventative (P1), R12 isolates, G143A, 4 weeks after application
  Percent disease control efficacy at 125 g/ha: 40%
Septoria tritici [1]; [3]
  Emax at 33 g/ha: 7%
  Emax at 125 g/ha: 20%

## OC(Cc1ccccc1Cl)(Cn1nc[nH]c1=S)C1(Cl)CC1 (stereo not drawn) [Prothioconazole, prothioconazole]
Septoria tritici [2]; 672 h, read-out: % Efficacy, 67 g a.i./ha, curative (K4), R12 isolates, G143A, 4 weeks after application
  Percent disease control efficacy at 67 g/ha: 7%
Septoria tritici [2]; 672 h, read-out: % Efficacy, 67 g a.i./ha, preventative (P1), R12 isolates, G143A, 4 weeks after application
  Percent disease control efficacy at 67 g/ha: 10%
Septoria tritici [1]; [3]
  Emax at 67 g/ha: 7%

## COC(=O)N(OC)c1ccccc1COc1ccn(-c2ccc(Cl)cc2)n1 [Pyraclostrobin, pyraclostrobin]
Septoria tritici [2]; 672 h, read-out: % Efficacy, 250 g a.i./ha, preventative (P1), R12 isolates, G143A, 4 weeks after application
  Percent disease control efficacy at 250 g/ha: 51%
Septoria tritici [2]; read-out: % Efficacy, 83 g a.i./ha, curative (K4, 4 days after inoculation), R12 isolates, G143A, assessed 4 weeks after application
  Percent disease control efficacy at 83 g/ha: 10%
